The numbers were not newly measured in publication PMC8596843, “Platinum Cyclooctadiene Complexes with Activity against Gram‐positive Bacteria” (Chemmedchem, 2021), which cites them from elsewhere.

Details of the data set: method as in PMID 33469147. The settings on record: mouse skin infection models, topical; cited from earlier work.

`C=C(C)[C@@H]1CCC(C)=C[C@H]1c1c(O)cc(CCCCC)cc1O` [cannabidiol]: the bacterial load entry is “able to reduce bacterial load”.
